Values of other authors, collected in patent US11725135B2 (priority 2019, dated 2023).

Row | Structure (SMILES) | concentration above which precipitation occurs / solubility
1 | F[Si-2](F)(F)(F)(F)F.[K+].[K+] [Example K2SiF6, potassium hexafluorosilicate] | 1800 µg/mL
2 | F[Si-2](F)(F)(F)(F)F.[Na+].[Na+] [Na2SiF6] | 6400 µg/mL
